The text below walks through data of patent US11331299B2, “Medicinal use of serrulatane diterpenes” (The University of Sydney, priority 2016, dated 2022).

For data set [1], the target named is T1, TAF1(1) (h) bromodomain (Homo sapiens, UniProt P21675).
T1 construct: Bromodomain
T1 sequence (P21675 1397-1505 limits assumed): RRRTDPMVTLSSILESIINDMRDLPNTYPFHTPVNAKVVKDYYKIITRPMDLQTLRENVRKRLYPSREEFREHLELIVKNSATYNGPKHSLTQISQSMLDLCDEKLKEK
Kind of data set: Epigenetic binding assay, Bromodomain. The following applies: 10 μM; read-out: % Inhibition of Control Specific Binding.

Data set [2] has as its target T2, CREBBP (h) bromodomain (Homo sapiens, UniProt Q92793).
T2 construct: Bromodomain; Eurofins CEREP (France), contract laboratory
Briefly: Epigenetic binding assay, Bromodomain. The following applies: for inhibition at 10 µM: read-out: % Inhibition of Control Specific Binding.

Data set [3] has as its target T3, PHF20(1) Tudor domain (Homo sapiens, UniProt Q9BVI0).
T3 construct: Crystal structures of the Tudor domains of human PHF20; Eurofins CEREP (France), contract laboratory
T3 sequence (Q9BVI0 4-69 limits assumed): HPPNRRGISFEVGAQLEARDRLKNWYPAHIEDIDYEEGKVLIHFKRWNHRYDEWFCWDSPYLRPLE
Kind of data set: Epigenetic binding assay, Tudor domain. The following applies: read-out: % Inhibition of Control Specific Binding.

Data set [4] addresses DNMT1 (h) (Homo sapiens, UniProt P26358). Briefly: Epigenetic enzyme assay, DNA methyltransferases (DNMTs). The class given is biochemical. The following applies: read-out: % Inhibition of Control Values.
Data set [5] deals with HDAC4 (h) (Homo sapiens, UniProt P56524). Kind of data set: Epigenetic enzyme assay, Histone deacetylase (HDACs). Type of data set: biochemical. The following applies: read-out: % Inhibition of Control Values.
Data set [6] deals with T4, HDAC10 (h) (Homo sapiens, UniProt Q969S8).
T4 sequence (Q969S8 1-669): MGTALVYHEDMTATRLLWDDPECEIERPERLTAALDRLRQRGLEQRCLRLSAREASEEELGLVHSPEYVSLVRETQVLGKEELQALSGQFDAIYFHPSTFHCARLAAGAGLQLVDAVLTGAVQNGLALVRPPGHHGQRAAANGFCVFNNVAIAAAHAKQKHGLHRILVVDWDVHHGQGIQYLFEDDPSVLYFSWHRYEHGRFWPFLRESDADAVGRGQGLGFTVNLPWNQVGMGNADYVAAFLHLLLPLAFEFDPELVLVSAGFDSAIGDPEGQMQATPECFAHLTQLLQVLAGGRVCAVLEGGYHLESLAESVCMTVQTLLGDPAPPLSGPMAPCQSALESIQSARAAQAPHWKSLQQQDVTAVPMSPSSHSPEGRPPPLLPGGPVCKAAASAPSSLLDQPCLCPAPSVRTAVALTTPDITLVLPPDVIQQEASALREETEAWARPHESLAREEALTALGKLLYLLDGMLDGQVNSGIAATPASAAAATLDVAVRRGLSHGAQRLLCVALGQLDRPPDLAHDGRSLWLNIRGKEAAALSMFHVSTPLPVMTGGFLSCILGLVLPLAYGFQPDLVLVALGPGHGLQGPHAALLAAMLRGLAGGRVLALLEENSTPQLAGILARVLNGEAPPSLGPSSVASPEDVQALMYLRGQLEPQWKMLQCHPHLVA
Described as above. Type of data set: biochemical. The following applies: read-out: % Inhibition of Control Values.

Data set [7] concerns the target PRMT6 (h) (Homo sapiens, UniProt Q96LA8). Kind of data set: Epigenetic enzyme assay, Methyltransferases (MTs). The class given is biochemical. The following applies: read-out: % Inhibition of Control Values.
The target in data set [8] is T5, Angiotensin Converting Enzyme (Oryctolagus cuniculus, UniProt P12822).
T5 construct: from tissue; host or cells: rabbit lung
T5 sequence (P12822 34-1310): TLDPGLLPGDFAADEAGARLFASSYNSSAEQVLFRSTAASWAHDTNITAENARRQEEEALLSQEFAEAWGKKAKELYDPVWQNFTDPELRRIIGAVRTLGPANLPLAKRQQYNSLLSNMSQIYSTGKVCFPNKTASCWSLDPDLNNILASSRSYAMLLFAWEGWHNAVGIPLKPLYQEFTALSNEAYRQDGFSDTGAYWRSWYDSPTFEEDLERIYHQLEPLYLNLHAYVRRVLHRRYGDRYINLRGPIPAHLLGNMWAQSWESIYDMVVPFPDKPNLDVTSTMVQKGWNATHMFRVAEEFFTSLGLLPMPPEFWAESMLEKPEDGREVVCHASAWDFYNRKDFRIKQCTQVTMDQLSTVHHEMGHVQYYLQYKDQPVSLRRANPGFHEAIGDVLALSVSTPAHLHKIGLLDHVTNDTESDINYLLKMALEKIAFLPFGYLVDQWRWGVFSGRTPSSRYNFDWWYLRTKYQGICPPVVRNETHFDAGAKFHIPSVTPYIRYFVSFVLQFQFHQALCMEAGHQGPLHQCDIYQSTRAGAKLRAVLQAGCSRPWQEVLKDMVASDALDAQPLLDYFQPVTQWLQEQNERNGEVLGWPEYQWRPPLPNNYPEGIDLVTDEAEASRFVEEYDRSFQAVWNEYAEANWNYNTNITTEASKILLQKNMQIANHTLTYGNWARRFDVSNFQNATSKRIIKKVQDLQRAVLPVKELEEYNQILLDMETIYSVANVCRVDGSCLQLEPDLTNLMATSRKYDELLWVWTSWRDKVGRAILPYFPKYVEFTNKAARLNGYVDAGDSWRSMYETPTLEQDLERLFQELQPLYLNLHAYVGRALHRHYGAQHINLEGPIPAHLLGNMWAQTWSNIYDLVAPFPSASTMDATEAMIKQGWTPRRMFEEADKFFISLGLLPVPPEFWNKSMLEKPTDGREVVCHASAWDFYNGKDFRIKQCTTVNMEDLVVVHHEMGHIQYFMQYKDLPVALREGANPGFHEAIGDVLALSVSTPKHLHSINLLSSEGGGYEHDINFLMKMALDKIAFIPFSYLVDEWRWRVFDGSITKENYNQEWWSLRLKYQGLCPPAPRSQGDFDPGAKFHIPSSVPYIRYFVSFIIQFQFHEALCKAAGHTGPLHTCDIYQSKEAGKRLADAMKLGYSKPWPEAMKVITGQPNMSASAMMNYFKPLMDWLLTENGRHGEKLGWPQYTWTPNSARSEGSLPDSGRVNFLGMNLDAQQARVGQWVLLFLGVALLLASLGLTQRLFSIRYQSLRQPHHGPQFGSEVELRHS
Kind of data set: Peptidase, Angiotensin Converting Enzyme. The following applies: assay year 2015. Type of data set: biochemical, Rabbit. The procedure:
The in vitro pharmacological studies were conducted by Eurofins PanLab (Taiwan) using the parameters shown in Table 13 with respect to appropriate literature references.

Data set [9] has as its system HUVEC endothelium cells (normal cell line). Kind of data set: In vitro cell viability assay (intracellular ATP, 72 hour). The class given is cell-based. The following applies: 10 μM; for % Cell growth: HUVEC, Endothelium (Normal).

pIC50: −log10 of the molar value.

Chain of PRMT6 (h) (Q96LA8 whole entry): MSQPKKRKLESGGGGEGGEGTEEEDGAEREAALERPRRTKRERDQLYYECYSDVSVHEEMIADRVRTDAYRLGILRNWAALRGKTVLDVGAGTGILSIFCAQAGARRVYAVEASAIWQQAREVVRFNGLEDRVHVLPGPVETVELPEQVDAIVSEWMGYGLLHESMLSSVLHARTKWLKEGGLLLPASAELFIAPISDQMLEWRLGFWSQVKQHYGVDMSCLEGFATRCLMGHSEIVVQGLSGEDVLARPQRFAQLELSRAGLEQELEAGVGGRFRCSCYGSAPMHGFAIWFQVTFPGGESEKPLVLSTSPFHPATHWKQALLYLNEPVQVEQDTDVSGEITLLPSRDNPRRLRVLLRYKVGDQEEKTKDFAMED
Chain of DNMT1 (h) (P26358 whole entry): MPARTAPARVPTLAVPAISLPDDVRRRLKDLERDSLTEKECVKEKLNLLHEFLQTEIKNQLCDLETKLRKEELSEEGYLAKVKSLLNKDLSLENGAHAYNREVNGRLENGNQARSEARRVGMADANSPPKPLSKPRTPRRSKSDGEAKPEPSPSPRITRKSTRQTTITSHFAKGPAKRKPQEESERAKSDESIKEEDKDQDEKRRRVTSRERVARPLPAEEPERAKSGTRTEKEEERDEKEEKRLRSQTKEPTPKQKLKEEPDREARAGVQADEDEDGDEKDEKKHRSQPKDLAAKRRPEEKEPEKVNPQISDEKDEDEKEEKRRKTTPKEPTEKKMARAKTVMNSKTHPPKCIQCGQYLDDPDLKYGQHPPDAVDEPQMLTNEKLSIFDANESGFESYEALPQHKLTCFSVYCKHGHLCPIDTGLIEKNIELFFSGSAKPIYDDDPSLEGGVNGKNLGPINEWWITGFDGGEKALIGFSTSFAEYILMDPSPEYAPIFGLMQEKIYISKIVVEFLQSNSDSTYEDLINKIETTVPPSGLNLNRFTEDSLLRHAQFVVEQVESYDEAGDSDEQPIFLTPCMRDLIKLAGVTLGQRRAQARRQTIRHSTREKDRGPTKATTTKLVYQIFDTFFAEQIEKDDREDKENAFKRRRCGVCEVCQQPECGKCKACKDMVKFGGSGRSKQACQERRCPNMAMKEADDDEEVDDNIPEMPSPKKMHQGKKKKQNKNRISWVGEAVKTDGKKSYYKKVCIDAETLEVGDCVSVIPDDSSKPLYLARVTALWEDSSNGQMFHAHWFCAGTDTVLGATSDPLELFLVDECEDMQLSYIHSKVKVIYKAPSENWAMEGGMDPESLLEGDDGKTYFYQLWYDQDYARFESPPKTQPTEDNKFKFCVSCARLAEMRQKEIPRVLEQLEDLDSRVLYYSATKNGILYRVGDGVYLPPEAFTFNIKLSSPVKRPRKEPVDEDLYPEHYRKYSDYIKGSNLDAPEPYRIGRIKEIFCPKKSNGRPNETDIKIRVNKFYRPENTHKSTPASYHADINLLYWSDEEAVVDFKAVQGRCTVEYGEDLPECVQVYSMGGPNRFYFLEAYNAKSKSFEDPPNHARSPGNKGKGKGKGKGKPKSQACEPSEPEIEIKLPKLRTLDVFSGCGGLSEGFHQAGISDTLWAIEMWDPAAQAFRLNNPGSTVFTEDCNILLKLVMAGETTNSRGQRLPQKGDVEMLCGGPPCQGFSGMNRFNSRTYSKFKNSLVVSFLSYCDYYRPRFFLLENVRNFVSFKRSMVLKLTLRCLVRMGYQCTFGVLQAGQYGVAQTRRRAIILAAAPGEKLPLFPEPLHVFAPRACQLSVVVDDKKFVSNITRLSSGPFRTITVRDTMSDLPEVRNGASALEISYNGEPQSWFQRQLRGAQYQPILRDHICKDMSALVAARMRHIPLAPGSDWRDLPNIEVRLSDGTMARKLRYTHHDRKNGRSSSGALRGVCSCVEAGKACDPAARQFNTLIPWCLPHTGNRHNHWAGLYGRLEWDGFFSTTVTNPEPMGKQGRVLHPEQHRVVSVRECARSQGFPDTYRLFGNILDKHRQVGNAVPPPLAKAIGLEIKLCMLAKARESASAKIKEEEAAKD
Chain of HDAC4 (h) (P56524 whole entry): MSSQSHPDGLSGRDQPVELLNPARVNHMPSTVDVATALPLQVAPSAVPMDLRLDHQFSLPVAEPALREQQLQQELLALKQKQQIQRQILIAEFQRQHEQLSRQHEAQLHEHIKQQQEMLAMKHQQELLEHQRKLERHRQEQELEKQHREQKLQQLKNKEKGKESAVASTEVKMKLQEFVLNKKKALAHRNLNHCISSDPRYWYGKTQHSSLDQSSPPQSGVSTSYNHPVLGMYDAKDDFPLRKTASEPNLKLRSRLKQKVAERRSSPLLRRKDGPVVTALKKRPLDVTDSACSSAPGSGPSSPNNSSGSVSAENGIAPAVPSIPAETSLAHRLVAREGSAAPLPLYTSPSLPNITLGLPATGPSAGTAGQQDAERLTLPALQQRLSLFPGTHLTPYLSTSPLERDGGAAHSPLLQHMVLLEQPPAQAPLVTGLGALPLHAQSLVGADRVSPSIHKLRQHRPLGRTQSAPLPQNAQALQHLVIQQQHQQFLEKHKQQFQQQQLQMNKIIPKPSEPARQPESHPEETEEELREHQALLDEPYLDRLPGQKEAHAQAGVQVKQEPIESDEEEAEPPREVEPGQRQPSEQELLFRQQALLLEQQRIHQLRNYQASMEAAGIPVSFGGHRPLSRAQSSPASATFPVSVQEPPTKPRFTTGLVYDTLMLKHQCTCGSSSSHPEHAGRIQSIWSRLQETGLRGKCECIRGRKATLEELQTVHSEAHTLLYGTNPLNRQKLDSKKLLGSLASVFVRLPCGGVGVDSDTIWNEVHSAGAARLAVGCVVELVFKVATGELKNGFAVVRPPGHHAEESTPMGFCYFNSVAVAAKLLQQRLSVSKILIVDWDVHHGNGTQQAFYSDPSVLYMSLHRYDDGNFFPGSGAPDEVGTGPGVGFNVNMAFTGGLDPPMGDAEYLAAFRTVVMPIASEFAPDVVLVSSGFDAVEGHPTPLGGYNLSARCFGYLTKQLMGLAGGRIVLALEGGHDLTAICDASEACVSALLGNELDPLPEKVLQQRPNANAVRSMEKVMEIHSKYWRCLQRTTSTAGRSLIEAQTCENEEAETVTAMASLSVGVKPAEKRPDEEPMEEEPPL
T2 sequence (Q92793 1085-1192 limits assumed): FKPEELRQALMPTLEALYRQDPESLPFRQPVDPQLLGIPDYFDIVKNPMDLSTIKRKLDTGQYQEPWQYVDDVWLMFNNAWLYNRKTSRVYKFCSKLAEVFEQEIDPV

For the compound `CC(C)=CCC[C@H](CO)[C@@H]1CC[C@@H](C)c2c1cc(C)c(O)c2O` [Compound 1, 7,8,18-trihydroxyserrulat-14-ene], the inhibition at 10 µM was 48% in data set [1]; 65% in data set [2] (10 μM); 7% in data set [3]; 10% in data set [4]; -73% in data set [5]; 1% in [6]. In addition, in data set [7], the inhibition at 10 µM is 49%. Also, in data set [2] (10 μM), the “% Inhibition of Control Specific Binding” value is recorded as “significant inhibitory activity”. Besides, in data set [2] (Table 9, inhibition/concentration-response curve), the negative logarithm of the IC50 (pIC50) was 5.47. In addition, the % control response at 10 µM in [8] was 0%. Moreover, in data set [9], the “% Cell growth” value is reported as −90%.
Turning to `CC(C)=CCC[C@H](C)[C@@H]1CC[C@@H](C)c2c1cc(C)c(O)c2O` [Compound 4, 7,8-dihydroxyserrulat-14-ene], in data set [9], the “reduction in the growth” value is on record as “no significant reduction” and the “% Cell growth” value is on record as 37%.
As to `CC(C)=CCC[C@@H]1COc2c(C)cc(O)c3c2[C@H]1CC[C@H]3C` [Compound 3, 5,18-epoxy-8-hydroxyserrulat-14-ene], the inhibition at 10 µM in data set [1] was 17%; in data set [2] (10 μM) it was 17%; in data set [3], 2%; in data set [4] it was -5%; in data set [5], -11%; in data set [6] it was 6%. In data set [7], the inhibition at 10 µM amounted to 34%. The % control response at 10 µM in data set [8] was -3%. Moreover, the “% Cell growth” value in [9] came to 91%.
Consider `CC(C)=CCC[C@@H]1C(O)Oc2c(C)cc(O)c3c2[C@H]1CC[C@H]3C` (stereo partly shown) [Compound 2, 5,18-epoxyserrulat-14-en-8,18-diol], for which the inhibition at 10 µM was 17% in data set [1]; 21% in [2] (10 μM); 2% in data set [3]; 4% in [4]; -20% in data set [5]; 3% in [6]. In addition, the inhibition at 10 µM in [7] turned out to be 57%. In addition, the % control response at 10 µM in data set [8] is -3%. Further, the “% Cell growth” value in data set [9] turned out to be 97%.

One may read the inhibition as the relative decrease from the control value, in per cent. Broadly, the pIC50 is −log10 of the IC50, conventionally taken in molar units. Lower therefore signals a large IC50.
